Values joined by “and” are separate entries in the source; they are usually repeats but may differ in a detail not shown here. Equal values may be shown once.
Key:
Type in all cases: in vivo, human
[1] = tested on: ulcerative colitis patients in an active stage; assay: Clinical study, 960 mg orally 3 times a day for 8 weeks: Mayo score, partial Mayo score, response rate, remission rate; set-up: key to Mayo score, Mean / Mayo score, Minimum / Mayo score, Maximum / Mayo score, Upper quartile / Mayo score, Median / Mayo score, Lower quartile: Mayo score = total of 4 subscores (stool, bloody stool, mucosa, global); key to Mayo score, difference in mean between Example 1 and Comparative Example 1: Mayo score points (total of 4 subscores)
Experimental: A tablet comprising 120 mg of the compound of the formula (1) was coated with a film. Thus, a film-coated tablet was prepared (compound of Example 1).
(§1) The compound of Example 1 or the compound of Comparative Example 1 was orally administered after meals 3 times a day. The number of the given tablets was 8 per administration (i.e., the amount of the compound (1) of Example 1 administered was 960 mg per administration). The administration period was 8 weeks. The compounds were administered until the timing after the breakfast on the day before the assessment day at Week 8.
As the subjects, 102 cases (Comparative Example 1: 51 cases, Example 1: 51 cases) were analyzed for assessment items to be described later.
The investigators or sub-investigators assessed subscores (“stool frequency,” “bloody stool,” “mucosal finding,” and “physician's global assessment”) of the Mayo score according to (1) to (4) below. A Mayo score was a total value of four subscore items of “stool frequency,” “bloody stool,” “mucosal finding,” and “physician's global assessment.” Meanwhile, a partial Mayo score was a total value of three subscore items of the Mayo score excluding “mucosal finding.” Note that, for the Mayo score and the partial Mayo score at Week 0, scores obtained at the time of the eligibility determination were used.
A proportion of subjects satisfying the following conditions (a) and (b) (response rate): • (a) the Mayo score was reduced by 30% or more and by 3 points or more in comparison with that at Week 0; and • (b) the subscore for bloody stool was reduced by 1 point or more in comparison with that at Week 0 or was 1 point or less.
Regarding the response rate (proportion of response cases) (Week 8), Example 1 was compared with Comparative Example 1 by setting a logistic regression model using the following adjusting factors as covariates to conduct a superiority test.
• 1. either subjects on whom a 5-ASA preparation (including a SASP preparation) or a corticosteroid preparation has an insufficient effect or who are intolerant to a 5-ASA preparation (including a SASP preparation) or a corticosteroid preparation; and • 2. the Mayo scores (6 points or more but 7 points or less, 8 points or more but 10 points or less) on the eligibility verification day. (1) Main Analysis
Using the response rate at Week 8 as a primary endpoint, a main effect model was set as the main analysis.
A remission rate is a proportion of subjects each having a Mayo score of 2 points or less with the individual subscores of 1 point or less.

[2] = tested on: ulcerative colitis patients in an active stage; assay: Clinical study, 960 mg orally 3 times a day for 8 weeks: Riley score (histopathological assessment of large intestinal mucosal biopsy)
Experimental: as §1
At the time of the endoscopic examination on the large intestine for the mucosal finding assessment, large intestinal mucosal tissues were sampled (biopsy). The biopsy for the histopathological assessment at Week 0 was conducted during the endoscopic examination on the large intestine for the eligibility determination. […] The sampled tissues were fixed with formalin to prepare histopathological specimens.
The histopathological assessment was scored by a histopathological assessment central adjudication committee according to the following criteria. A Riley score is a total score of the following items.

[3] = tested on: ulcerative colitis patients in an active stage; assay: Clinical study, 960 mg orally 3 times a day for 8 weeks: adverse events
Experimental: as §1

[4] = 960 mg orally 3 times a day for 8 weeks

## COC(=O)[C@H](Cc1ccc(-n2c(=O)c3cc(N(C)C)ccc3n(C)c2=O)cc1)NC(=O)c1c(Cl)cccc1Cl [Example 1, methyl(2S)-2-(2,6-dichlorobenzamide)-3-{4-[6-(dimethylamino)-1-methyl-2,4-dioxo-1,4-dihydroquinazolin-3(2H)-yl]phenyl}propanoate]
[1]; [4]
  Response rate in comparison with Comparative Example (placebo): significantly improved
[1]; 3 months or more but less than 6 months after remission induction therapy started (6/10 cases)
  Response rate: 60.0%
[1]; 6 months or more after remission induction therapy started (5/11 cases)
  Response rate: 45.5%
[1]; Mayo score 6 points or more but 7 points or less (15/20 cases)
  Response rate: 75.0%
[1]; Mayo score 8 points or more but 10 points or less (17/31 cases)
  Response rate: 54.8%
[1]; Week 0
  Mayo score, Lower quartile: 7.0
  Mayo score, Maximum: 10
  Mayo score, Mean: 7.8±1.2 and 7.8
  Mayo score, Median: 8.0
  Mayo score, Minimum: 6
  Mayo score, Upper quartile: 9.0
  Partial Mayo score, Lower quartile: 5.0
  Partial Mayo score, Maximum: 8
  Partial Mayo score, Mean: 5.7±1.1 and 5.7
  Partial Mayo score, Median: 6.0
  Partial Mayo score, Minimum: 4
  Partial Mayo score, Upper quartile: 6.0
[1]; Week 2
  Partial Mayo score, Lower quartile: 3.0
  Partial Mayo score, Maximum: 8
  Partial Mayo score, Mean: 4.4±1.7 and 4.4
  Partial Mayo score, Median: 5.0
  Partial Mayo score, Minimum: 0
  Partial Mayo score, Upper quartile: 6.0
  Partial Mayo score, difference in mean between Example 1 and Comparative Example 1: −0.55
[1]; Week 4
  Partial Mayo score, Lower quartile: 2.0
  Partial Mayo score, Maximum: 8
  Partial Mayo score, Mean: 3.5±2.0 and 3.5
  Partial Mayo score, Median: 3.0
  Partial Mayo score, Minimum: 0
  Partial Mayo score, Upper quartile: 5.0
  Partial Mayo score, difference in mean between Example 1 and Comparative Example 1: −1.16
[1]; Week 8
  Difference in remission rates, Example 1 vs Comparative Example 1 (placebo): 19.6%
  Difference in response rates, Example 1 vs Comparative Example 1 (placebo): 37.3%
  Mayo score, Lower quartile: 2.0
  Mayo score, Maximum: 9
  Mayo score, Mean: 4.0±2.4 and 4.0
  Mayo score, Median: 4.0
  Mayo score, Minimum: 0
  Mayo score, Upper quartile: 5.0
  Mayo score, difference in mean between Example 1 and Comparative Example 1: −2.14
  Partial Mayo score, Lower quartile: 2.0
  Partial Mayo score, Maximum: 8
  Partial Mayo score, Mean: 3.1±2.1 and 3.1
  Partial Mayo score, Median: 3.0
  Partial Mayo score, Minimum: 0
  Partial Mayo score, Upper quartile: 4.0
  Partial Mayo score, difference in mean between Example 1 and Comparative Example 1: −1.63
[1]; Week 8, 51 cases analyzed
  Remission cases: 12
  Response cases: 32
[1]; Week 8, all subjects
  Remission rate: 23.5%
  Response rate: 62.7%
[1]; Week 8, logistic regression model
  Estimate of odds ratio of Example 1 to Comparative Example 1 (placebo group), response rate: 5.35
[1]; body weight 50 kg or more and disease period less than 5 years (7/22 cases)
  Remission rate: 31.8%
[1]; body weight 50 kg or more and disease period less than 5 years (16/22 cases)
  Response rate: 72.7%
[1]; body weight 50 kg or more but less than 60 kg (9/13 cases)
  Response rate: 69.2%
[1]; body weight less than 50 kg (5/9 cases)
  Response rate: 55.6%
[1]; disease for 1 year or more but less than 5 years (13/21 cases)
  Response rate: 61.9%
[1]; disease for 5 years or more (13/24 cases)
  Response rate: 54.2%
[1]; disease for less than 1 year (6/6 cases)
  Response rate: 100.0%
[1]; disease occurring for the first time (3/5 cases)
  Response rate: 60.0%
[1]; disease relapsing (29/46 cases)
  Response rate: 63.0%
[1]; females (13/20 cases)
  Response rate: 65.0%
[1]; left-sided colitis subjects (19/29 cases)
  Response rate: 65.5%
[1]; less than 1 month after remission induction therapy started (8/13 cases)
  Response rate: 61.5%
[1]; males (19/31 cases)
  Response rate: 61.3%
[1]; most active site at S or Rs and disease period less than 5 years (9/10 cases)
  Response rate: 90.0%
[1]; most active site of mucosal inflammation at Ra or Rb (15/28 cases)
  Response rate: 53.6%
[1]; most active site of mucosal inflammation at S or Rs (17/23 cases)
  Response rate: 73.9%
[1]; not receiving enema agent or suppository therapy in the active stage this time (21/34 cases)
  Response rate: 61.8%
[1]; pancolitis subjects (13/22 cases)
  Response rate: 59.1%
[1]; received enema agent or suppository therapy but terminated due to insufficient effect (11/17 cases)
  Response rate: 64.7%
[1]; relapsing subjects, disease period less than 5 years (16/22 cases)
  Response rate: 72.7%
[1]; relapsing subjects, stool frequency 6 times or less per day (25/32 cases)
  Response rate: 78.1%
[1]; stool frequency 6 times or less per day and disease period less than 5 years (16/20 cases)
  Response rate: 80.0%
[1]; stool frequency 6 times or less per day before administration (28/37 cases)
  Response rate: 75.7%
[1]; stool frequency 7 times or more per day before administration (4/14 cases)
  Response rate: 28.6%
[1]; subjects intolerant to a 5-ASA preparation (2/2 cases)
  Response rate: 100.0%
[1]; subjects intolerant to a corticosteroid preparation (0/1 case)
  Response rate: 0.0%
[1]; subjects on whom a 5-ASA preparation had an insufficient effect (28/46 cases)
  Response rate: 60.9%
[1]; subjects on whom a corticosteroid preparation had an insufficient effect (2/2 cases)
  Response rate: 100.0%
[2]; Week 0
  Riley score, Lower quartile: 9.0
  Riley score, Maximum: 17
  Riley score, Mean: 11.8±2.8 and 11.8
  Riley score, Median: 12.0
  Riley score, Minimum: 6
  Riley score, Upper quartile: 14.0
[2]; Week 8
  Riley score, Lower quartile: 6.0
  Riley score, Maximum: 16
  Riley score, Mean: 8.6±3.4 and 8.6
  Riley score, Median: 9.0
  Riley score, Minimum: 3
  Riley score, Upper quartile: 11.0
  Riley score, difference in mean between Example 1 and Comparative Example 1: −1.96
[3]; [4]
  Safety (adverse event analysis): no problem in safety
[3]; 8-week study period
  Severe adverse events: no severe adverse event occurred
[3]; 8-week study period (2/51 cases)
  Incidence rate of moderate adverse events: 3.9%

From patent publication US10183022B2, “Pharmaceutical composition for treating ulcerative colitis” (EA Pharma Co., Ltd., priority 2014, dated 2019)
